Bridge positions count the residues as written; N and C are the ends. Peptide text beside a SMILES is read from it.
How the values were obtained:
[1] = target: Sodium channel protein type 5 subunit alpha (Homo sapiens, UniProt Q14524); assay: Inhibition of human NaV1.5 at -140 mV holding potential by whole-cell patch clamp assay
[2] = target: T1, Sodium channel protein type 9 subunit alpha (Homo sapiens, UniProt Q15858); assay: Inhibition of human NaV1.7 at -140 mV holding potential by whole-cell patch clamp assay
[3] = target: Sodium channel protein type 4 subunit alpha (Homo sapiens, UniProt P35499); assay: Inhibition of human NaV1.4 at -140 mV holding potential by whole-cell patch clamp assay
[4] = Stability in mouse plasma assessed as intact compound remaining at 37 degC after 24 hrs by LC-MS method; format: ADME, cell-free; conditions: read-out: Stability
[5] = target: Sodium channel protein type 9 subunit alpha (Mus musculus, UniProt Q62205); assay: Inhibition of NaV1.7 in C57BL/6 mouse DRG neurons at -140 mV holding potential by whole-cell patch clamp assay
[6] = Stability in human plasma assessed as intact compound remaining at 37 degC after 24 hrs by LC-MS method; format: ADME, cell-free; conditions: read-out: Stability
[7] = target: T1, Sodium channel protein type 9 subunit alpha; assay: Inhibition of human NaV1.7 by patchXpress 700A electrophysiology method

Sodium channel protein type 5 subunit alpha, sequence (Q14524 whole entry): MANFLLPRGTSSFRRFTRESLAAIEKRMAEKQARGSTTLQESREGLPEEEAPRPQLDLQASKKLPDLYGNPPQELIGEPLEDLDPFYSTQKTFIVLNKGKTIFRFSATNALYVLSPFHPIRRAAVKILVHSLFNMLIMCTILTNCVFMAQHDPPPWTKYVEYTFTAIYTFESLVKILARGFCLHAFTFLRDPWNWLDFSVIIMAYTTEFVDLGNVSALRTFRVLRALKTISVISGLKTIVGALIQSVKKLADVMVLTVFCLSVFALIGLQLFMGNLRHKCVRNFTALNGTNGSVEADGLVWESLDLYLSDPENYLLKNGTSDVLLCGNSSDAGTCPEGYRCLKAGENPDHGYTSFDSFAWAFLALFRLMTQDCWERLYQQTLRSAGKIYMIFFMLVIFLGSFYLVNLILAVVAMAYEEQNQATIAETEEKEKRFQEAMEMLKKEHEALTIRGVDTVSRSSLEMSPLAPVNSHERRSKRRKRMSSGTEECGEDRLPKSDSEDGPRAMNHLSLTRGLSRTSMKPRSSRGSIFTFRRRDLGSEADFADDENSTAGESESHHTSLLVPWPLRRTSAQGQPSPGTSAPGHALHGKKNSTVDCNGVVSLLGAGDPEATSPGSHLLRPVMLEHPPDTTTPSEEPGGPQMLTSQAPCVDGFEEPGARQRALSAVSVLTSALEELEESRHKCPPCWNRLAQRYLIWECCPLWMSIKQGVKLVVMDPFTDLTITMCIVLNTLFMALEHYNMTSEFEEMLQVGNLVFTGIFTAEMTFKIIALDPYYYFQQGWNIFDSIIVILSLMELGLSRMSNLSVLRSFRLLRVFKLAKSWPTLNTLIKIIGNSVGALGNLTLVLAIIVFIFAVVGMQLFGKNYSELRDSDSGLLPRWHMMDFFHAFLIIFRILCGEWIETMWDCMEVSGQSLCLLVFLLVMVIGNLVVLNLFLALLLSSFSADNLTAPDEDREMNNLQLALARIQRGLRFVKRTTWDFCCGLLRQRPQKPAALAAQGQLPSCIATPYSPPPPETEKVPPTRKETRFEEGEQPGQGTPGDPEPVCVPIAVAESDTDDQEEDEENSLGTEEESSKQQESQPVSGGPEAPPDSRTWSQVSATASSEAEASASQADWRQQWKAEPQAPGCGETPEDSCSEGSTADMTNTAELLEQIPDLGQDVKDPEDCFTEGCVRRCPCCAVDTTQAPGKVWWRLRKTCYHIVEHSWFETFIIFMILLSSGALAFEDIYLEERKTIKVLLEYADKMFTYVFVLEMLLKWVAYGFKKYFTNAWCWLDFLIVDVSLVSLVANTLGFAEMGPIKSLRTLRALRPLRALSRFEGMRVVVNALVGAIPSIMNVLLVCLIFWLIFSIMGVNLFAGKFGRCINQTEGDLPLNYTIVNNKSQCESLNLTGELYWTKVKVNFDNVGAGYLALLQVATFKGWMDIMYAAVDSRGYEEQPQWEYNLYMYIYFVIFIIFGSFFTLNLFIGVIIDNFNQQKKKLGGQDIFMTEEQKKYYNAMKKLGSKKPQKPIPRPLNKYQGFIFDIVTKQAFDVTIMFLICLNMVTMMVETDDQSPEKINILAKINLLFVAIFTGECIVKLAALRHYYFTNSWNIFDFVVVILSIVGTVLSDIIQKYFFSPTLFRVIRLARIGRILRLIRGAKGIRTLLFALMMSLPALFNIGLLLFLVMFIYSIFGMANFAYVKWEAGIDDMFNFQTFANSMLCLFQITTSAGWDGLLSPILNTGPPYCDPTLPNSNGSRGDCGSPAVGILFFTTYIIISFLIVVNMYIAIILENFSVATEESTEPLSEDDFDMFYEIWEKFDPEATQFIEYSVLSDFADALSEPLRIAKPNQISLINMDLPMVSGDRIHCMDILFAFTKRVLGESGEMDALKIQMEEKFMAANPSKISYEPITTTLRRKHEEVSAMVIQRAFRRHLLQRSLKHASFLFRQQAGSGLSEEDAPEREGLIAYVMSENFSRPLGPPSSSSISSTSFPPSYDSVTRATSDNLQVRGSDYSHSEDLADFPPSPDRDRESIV
T1 sequence (Q15858 whole entry): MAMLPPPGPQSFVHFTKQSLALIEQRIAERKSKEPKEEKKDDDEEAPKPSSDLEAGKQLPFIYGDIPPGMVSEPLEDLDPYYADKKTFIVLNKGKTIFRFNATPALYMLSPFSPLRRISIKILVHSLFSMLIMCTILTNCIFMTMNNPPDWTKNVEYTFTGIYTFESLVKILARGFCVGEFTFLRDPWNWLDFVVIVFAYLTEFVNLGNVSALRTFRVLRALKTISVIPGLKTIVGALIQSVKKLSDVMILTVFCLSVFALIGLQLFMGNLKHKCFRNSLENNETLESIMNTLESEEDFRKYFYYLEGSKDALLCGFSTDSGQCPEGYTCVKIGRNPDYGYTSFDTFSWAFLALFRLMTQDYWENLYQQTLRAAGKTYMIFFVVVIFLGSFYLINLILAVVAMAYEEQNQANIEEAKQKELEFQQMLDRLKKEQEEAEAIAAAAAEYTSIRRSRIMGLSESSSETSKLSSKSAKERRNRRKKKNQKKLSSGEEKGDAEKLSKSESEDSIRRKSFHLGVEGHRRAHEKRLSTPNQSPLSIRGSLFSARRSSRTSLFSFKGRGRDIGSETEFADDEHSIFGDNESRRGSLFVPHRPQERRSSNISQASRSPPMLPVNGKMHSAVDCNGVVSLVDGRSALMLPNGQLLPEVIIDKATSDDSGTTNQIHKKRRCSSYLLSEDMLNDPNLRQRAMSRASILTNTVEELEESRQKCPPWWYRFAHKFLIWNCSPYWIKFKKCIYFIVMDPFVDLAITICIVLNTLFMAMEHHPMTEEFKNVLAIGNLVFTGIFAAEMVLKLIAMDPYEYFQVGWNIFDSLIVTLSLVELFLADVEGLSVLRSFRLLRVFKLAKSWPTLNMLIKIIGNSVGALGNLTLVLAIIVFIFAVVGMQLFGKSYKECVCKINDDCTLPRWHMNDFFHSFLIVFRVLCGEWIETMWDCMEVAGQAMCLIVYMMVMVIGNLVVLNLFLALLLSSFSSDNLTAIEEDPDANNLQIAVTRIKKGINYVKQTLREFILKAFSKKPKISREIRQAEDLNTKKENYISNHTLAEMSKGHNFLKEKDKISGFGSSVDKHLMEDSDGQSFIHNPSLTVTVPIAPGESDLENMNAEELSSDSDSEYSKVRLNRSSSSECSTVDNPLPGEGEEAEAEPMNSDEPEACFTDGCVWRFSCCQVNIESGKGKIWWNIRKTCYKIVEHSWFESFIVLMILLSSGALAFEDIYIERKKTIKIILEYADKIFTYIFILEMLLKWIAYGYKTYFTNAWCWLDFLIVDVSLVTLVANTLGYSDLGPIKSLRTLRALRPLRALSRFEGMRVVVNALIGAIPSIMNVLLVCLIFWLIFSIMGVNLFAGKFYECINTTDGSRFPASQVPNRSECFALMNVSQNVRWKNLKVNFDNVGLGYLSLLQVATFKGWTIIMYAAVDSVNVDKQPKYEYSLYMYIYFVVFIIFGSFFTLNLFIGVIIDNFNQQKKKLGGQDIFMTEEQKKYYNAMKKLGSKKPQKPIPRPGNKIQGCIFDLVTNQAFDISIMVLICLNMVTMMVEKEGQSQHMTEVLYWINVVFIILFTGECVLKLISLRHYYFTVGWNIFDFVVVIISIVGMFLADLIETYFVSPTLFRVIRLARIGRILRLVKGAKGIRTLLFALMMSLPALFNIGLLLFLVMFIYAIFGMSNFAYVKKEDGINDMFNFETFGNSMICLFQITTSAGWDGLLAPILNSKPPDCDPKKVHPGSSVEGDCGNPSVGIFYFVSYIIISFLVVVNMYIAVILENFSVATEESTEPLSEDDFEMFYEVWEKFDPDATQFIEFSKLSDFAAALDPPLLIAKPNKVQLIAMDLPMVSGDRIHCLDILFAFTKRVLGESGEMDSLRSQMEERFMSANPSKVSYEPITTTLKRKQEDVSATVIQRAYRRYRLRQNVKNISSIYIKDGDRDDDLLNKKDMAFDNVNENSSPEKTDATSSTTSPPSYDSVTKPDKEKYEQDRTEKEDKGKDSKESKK

| Structure (SMILES) | IC50 [1] | IC50 [2] | IC50 [3] | remaining at 24 h [4] | IC50 [5] | remaining at 24 h [6] | IC50 [7] |
| --- | --- | --- | --- | --- | --- | --- | --- |
| CC[C@H](C)[C@H](NC(=O)[C@H](CCC(N)=O)NC(=O)[C@H](Cc1ccc(O)cc1)NC(=O)[C@H](CCCCN)NC(=O)[C@@H]1CSSC[C@@H]2NC(=O)[C@H](CCC(N)=O)NC(=O)[C@H](CC(=O)O)NC(=O)[C@H](CC(N)=O)NC(=O)[C@H](CO)NC(=O)[C@@H]3CCCN3C(=O)[C@H](CC(N)=O)NC(=O)[C@@H]3CSSC[C@H](NC(=O)[C@H](C(C)C)NC(=O)[C@H](CC(C)C)NC(=O)[C@H](CCCCN)NC(=O)[C@H](CO)NC(=O)[C@H](CO)NC(=O)[C@H](CCCCN)NC(=O)[C@H](CSSC[C@H](NC(=O)[C@@H](N)CCC(=O)O)C(=O)N[C@@H](CC(C)C)C(=O)N[C@@H](CCC(=O)O)C(=O)N[C@@H]([C@@H](C)CC)C(=O)N[C@@H](Cc4ccccc4)C(=O)N[C@@H](CCCCN)C(=O)N[C@@H](C)C(=O)N3)NC2=O)C(=O)N[C@@H](CO)C(=O)N[C@@H](CCCNC(=N)N)C(=O)N[C@@H](CCCCN)C(=O)N[C@@H]([C@@H](C)O)C(=O)N[C@@H](CCCNC(=N)N)C(=O)N[C@@H](Cc2c[nH]c3ccccc23)C(=O)N1)C(=O)O | 25000 nM | 33 nM | 3900 nM | – | – | – | – |
| CC[C@H](C)[C@@H]1NC(=O)[C@@H]2CSSC[C@@H]3NC(=O)[C@H](C(C)C)NC(=O)[C@H](CC(C)C)NC(=O)[C@H](CC(N)=O)NC(=O)[C@@H]4CCCN4C(=O)[C@H](CCCNC(=N)N)NC(=O)[C@H](CSSC[C@H](NC(=O)[C@@H](N)CC(=O)O)C(=O)N[C@@H](CC(C)C)C(=O)NCC(=O)N[C@@H](C)C(=O)N[C@@H](CCSC)C(=O)N[C@@H](CCCNC(=N)N)C(=O)N[C@@H](CCCCN)C(=O)N2)NC(=O)[C@H](CSSC[C@@H](C(=O)N[C@@H](CCCCN)C(=O)N[C@@H](Cc2ccc(O)cc2)C(=O)N[C@H](C(=O)N[C@@H](Cc2ccccc2)C(N)=O)C(C)C)NC(=O)[C@H](Cc2c[nH]c4ccccc24)NC(=O)[C@H](CCCCN)NC(=O)[C@H](Cc2cnc[nH]2)NC(=O)[C@H]([C@@H](C)O)NC(=O)[C@H](CCCNC(=N)N)NC(=O)[C@H](CO)NC3=O)NC(=O)[C@H](CCCCN)NC(=O)[C@H](CC(=O)O)NC(=O)[C@H](CC(N)=O)NC(=O)[C@H](CC(=O)O)NC(=O)[C@@H]2CCCN2C1=O (H-DCLGAMRKCIPDNDKCCRPNLVCSRTHKWCKYVF-NH2; disulfide 2-17, 9-23, 16-30) | 27000 nM | 630 nM | – | 99% | 22.6 nM | 99% | 27 nM |
| CSCC[C@@H]1NC(=O)CNC(=O)[C@H](CCC(=O)O)NC(=O)[C@@H]2CSSC[C@H](NC(=O)[C@@H](N)Cc3ccc(O)cc3)C(=O)N[C@@H](CCC(N)=O)C(=O)N[C@@H](CCCCN)C(=O)N[C@@H](Cc3c[nH]c4ccccc34)C(=O)N[C@@H](CCSC)C(=O)N[C@@H](Cc3c[nH]c4ccccc34)C(=O)N[C@@H]([C@@H](C)O)C(=O)N[C@H]3CSSC[C@H](NC(=O)[C@H](C(C)C)NC1=O)C(=O)N[C@@H](CCCNC(=N)N)C(=O)N[C@@H](CC(C)C)C(=O)N[C@@H](Cc1c[nH]c4ccccc14)C(=O)N[C@H](C(=O)N[C@@H](CCCCN)C(=O)N[C@@H](CCCCN)C(=O)N[C@@H](CCCCN)C(=O)N[C@@H](CC(C)C)C(=O)N[C@@H](Cc1c[nH]c4ccccc14)C(=O)O)CSSC[C@H](NC(=O)[C@H](CCCCN)NC(=O)[C@H](CCCNC(=N)N)NC(=O)[C@H](CCC(=O)O)NC(=O)[C@H](CO)NC(=O)[C@H](CC(=O)O)NC3=O)C(=O)N2 | 90 nM | – | 30 nM | – | – | – | – |
| N=C(N)NCCC[C@@H]1NC(=O)[C@H](CO)NC(=O)[C@H](Cc2c[nH]cn2)NC(=O)[C@H](CC(=O)O)NC(=O)[C@H](CCCNC(=N)N)NC(=O)[C@H]2CSSC[C@@H]3NC(=O)[C@@H](N)CSSC[C@H](NC1=O)C(=O)N[C@H](C(=O)O)CSSC[C@H](NC(=O)[C@H](CC(N)=O)NC3=O)C(=O)N[C@@H](CO)C(=O)N[C@@H](CO)C(=O)N[C@@H](CCCCN)C(=O)N[C@@H](Cc1c[nH]c3ccccc13)C(=O)N2 | > 25000 nM | 460 nM | 20 nM | – | – | – | – |
| CC[C@H](C)[C@@H]1NC(=O)[C@@H]2CSSC[C@@H]3NC(=O)[C@H](C(C)C)NC(=O)[C@H](CC(C)C)NC(=O)[C@H](CC(N)=O)NC(=O)[C@@H]4CCCN4C(=O)[C@H](CCCNC(=N)N)NC(=O)[C@H](CSSC[C@H](NC(=O)[C@@H](N)CC(=O)O)C(=O)N[C@@H](CC(C)C)C(=O)NCC(=O)N[C@@H](CC4CCCCC4)C(=O)N[C@@H](CCSC)C(=O)N[C@@H](CCCNC(=N)N)C(=O)N[C@@H](CCCCN)C(=O)N2)NC(=O)[C@H](CSSC[C@@H](C(=O)N[C@@H](CCCCN)C(=O)N[C@@H](Cc2ccc(O)cc2)C(=O)N[C@H](C(=O)N[C@@H](Cc2ccccc2)C(N)=O)C(C)C)NC(=O)[C@H](Cc2c[nH]c4ccccc24)NC(=O)[C@H](CCCCN)NC(=O)[C@H](Cc2cnc[nH]2)NC(=O)[C@H]([C@@H](C)O)NC(=O)[C@H](CCCNC(=N)N)NC(=O)[C@H](CO)NC3=O)NC(=O)[C@H](CCCCN)NC(=O)[C@H](CC(=O)O)NC(=O)[C@H](CC(N)=O)NC(=O)[C@H](CC(=O)O)NC(=O)[C@@H]2CCCN2C1=O | 3500 nM | 4 nM | – | – | – | – | – |
| CC[C@H](C)[C@@H]1NC(=O)[C@@H]2CSSC[C@@H]3NC(=O)[C@H](C(C)C)NC(=O)[C@H](C)NC(=O)[C@H](CC(N)=O)NC(=O)[C@@H]4CCCN4C(=O)[C@H](CCCNC(=N)N)NC(=O)[C@H](CSSC[C@H](NC(=O)[C@@H](N)CC(=O)O)C(=O)N[C@@H](CC(C)C)C(=O)NCC(=O)N[C@@H](Cc4ccccc4)C(=O)N[C@@H](CCSC)C(=O)N[C@@H](CCCNC(=N)N)C(=O)N[C@@H](CCCCN)C(=O)N2)NC(=O)[C@H](CSSC[C@@H](C(=O)N[C@@H](CCCCN)C(=O)N[C@@H](Cc2ccc(O)cc2)C(=O)N[C@H](C(=O)N[C@@H](Cc2ccccc2)C(N)=O)C(C)C)NC(=O)[C@H](Cc2c[nH]c4ccccc24)NC(=O)[C@H](CCCCN)NC(=O)[C@H](Cc2cnc[nH]2)NC(=O)[C@H]([C@@H](C)O)NC(=O)[C@H](CCCNC(=N)N)NC(=O)[C@H](CO)NC3=O)NC(=O)[C@H](CCCCN)NC(=O)[C@H](CC(=O)O)NC(=O)[C@H](CC(N)=O)NC(=O)[C@H](CC(=O)O)NC(=O)[C@@H]2CCCN2C1=O (H-DCLGFMRKCIPDNDKCCRPNAVCSRTHKWCKYVF-NH2; disulfide 2-17, 9-23, 16-30) | > 20000 nM | 190 nM | – | – | – | – | – |
| CC[C@H](C)[C@@H]1NC(=O)[C@@H]2CSSC[C@@H]3NC(=O)[C@H](C(C)C)NC(=O)[C@H](CC(C)C)NC(=O)[C@H](CC(N)=O)NC(=O)[C@@H]4CCCN4C(=O)[C@H](CCCNC(=N)N)NC(=O)[C@H](CSSC[C@H](NC(=O)[C@@H](N)CC(=O)O)C(=O)N[C@@H](CC(C)C)C(=O)NCC(=O)N[C@@H](Cc4ccc(I)cc4)C(=O)N[C@@H](CCSC)C(=O)N[C@@H](CCCNC(=N)N)C(=O)N[C@@H](CCCCN)C(=O)N2)NC(=O)[C@H](CSSC[C@@H](C(=O)N[C@@H](CCCCN)C(=O)N[C@@H](Cc2ccc(O)cc2)C(=O)N[C@H](C(=O)N[C@@H](Cc2ccccc2)C(N)=O)C(C)C)NC(=O)[C@H](Cc2c[nH]c4ccccc24)NC(=O)[C@H](CCCCN)NC(=O)[C@H](Cc2cnc[nH]2)NC(=O)[C@H]([C@@H](C)O)NC(=O)[C@H](CCCNC(=N)N)NC(=O)[C@H](CO)NC3=O)NC(=O)[C@H](CCCCN)NC(=O)[C@H](CC(=O)O)NC(=O)[C@H](CC(N)=O)NC(=O)[C@H](CC(=O)O)NC(=O)[C@@H]2CCCN2C1=O | > 10000 nM | 236 nM | – | – | – | – | – |
| CC[C@H](C)[C@@H]1NC(=O)[C@@H]2CSSC[C@@H]3NC(=O)[C@H](C(C)C)NC(=O)[C@H](CC(C)C)NC(=O)[C@H](CC(N)=O)NC(=O)[C@@H]4CCCN4C(=O)[C@H](CCCNC(=N)N)NC(=O)[C@H](CSSC[C@H](NC(=O)[C@@H](N)CC(=O)O)C(=O)N[C@@H](CC(C)C)C(=O)NCC(=O)N[C@@H](Cc4ccccc4)C(=O)N[C@@H](CCSC)C(=O)N[C@@H](CCCNC(=N)N)C(=O)N[C@@H](CCCCN)C(=O)N2)NC(=O)[C@H](CSSC[C@@H](C(=O)N[C@@H](CCCCN)C(=O)N[C@@H](Cc2ccc(O)cc2)C(=O)N[C@H](C(=O)N[C@@H](Cc2ccccc2)C(N)=O)C(C)C)NC(=O)[C@H](Cc2c[nH]c4ccccc24)NC(=O)[C@H](CCCCN)NC(=O)[C@H](Cc2cnc[nH]2)NC(=O)[C@H]([C@@H](C)O)NC(=O)[C@H](CCCNC(=N)N)NC(=O)[C@H](CO)NC3=O)NC(=O)[C@H](CCCCN)NC(=O)[C@H](CC(=O)O)NC(=O)[C@H](C)NC(=O)[C@H](CC(=O)O)NC(=O)[C@@H]2CCCN2C1=O (H-DCLGFMRKCIPDADKCCRPNLVCSRTHKWCKYVF-NH2; disulfide 2-17, 9-23, 16-30) | > 5000 nM | 190 nM | – | – | – | – | – |
